Columns and labels:
obese db/db mice = conditions: cited from earlier work
brown adipocyte = conditions: by increasing transcription of PRDM16 via AMPK activation and PGC-1α recruitment; cited from earlier work
C57BL/6J mice [1] = experiment: Plasma TC, TG, LDL, VLDL measured with kits in high-fat diet mice; assay type: in vivo
Protocol: Six-week-old male C57BL/6J mice were housed in a temperature-and relative humidity-controlled room (22±2° C., 55±5%) with a 12 h light-dark cycle and free access to food and water. For chronic anti-obesity studies, all mice were fed the high-fat diet (HFD, 60% calories from fat, 20% calories from protein, 20% calories from carbohydrate) for 8 weeks. At 14 weeks of age, all mice were randomly divided into 3 groups of 10 animals: (1) non-supplement group (Con Food only, Group 1); (2) DHB supplement group (DHB+Food. 50 mg/kg, Group 2); (3) DHB supplement group (DHB+Food, 100 mg/kg, Group 3). After an eight-week induction, the mice in group I were intraperitoneal injection (i.p.) administrated with normal saline between 9:30 and 11:30 am, and food and water were given ad libitum. The mice in group 2 and group 3 were intraperitoneal injection (i.p.) administrated with DHB in normal saline solution daily for 6 weeks between 9:30 and 11:30 am, and food and water were given ad libitum. The total experimental time is 14 weeks, including two periods: an eight-week induction period and a subsequent six-week supplement period. Plasma total cholesterol (TC), triglyceride (TG), low-density lipoprotein (LDL), and very low-density lipoprotein (VLDL) were measured using corresponding kits according to the manufacturers' instructions.

C57BL/6J mice [2] = experiment: i.p. glucose tolerance test (GTT) in obese mice; assay type: in vivo; conditions: 4th week of supplementation; glucose 0.75 g/kg i.p.; 0-120 min; especially higher dose; FIG. 5
Protocol: (§1) Six-week-old male C57BL/6J mice were housed in a temperature-and relative humidity-controlled room (22±2° C., 55±5%) with a 12 h light-dark cycle and free access to food and water. For chronic anti-obesity studies, all mice were fed the high-fat diet (HFD, 60% calories from fat, 20% calories from protein, 20% calories from carbohydrate) for 8 weeks. At 14 weeks of age, all mice were randomly divided into 3 groups of 10 animals: (1) non-supplement group (Con Food only, Group 1); (2) DHB supplement group (DHB+Food. 50 mg/kg, Group 2); (3) DHB supplement group (DHB+Food, 100 mg/kg, Group 3). The mice in group 2 and group 3 were intraperitoneal injection (i.p.) administrated with DHB in normal saline solution daily for 6 weeks between 9:30 and 11:30 am, and food and water were given ad libitum.

C57BL/6J mice [3] = experiment: Insulin tolerance test (ITT); assay type: in vivo; conditions: FIG. 6
Protocol: as §1, with “libitum. An insulin tolerance test (ITT) was performed by using a glucose analyzer in the 6-h fasting mice in the 5th week of the supplementation. The glucose concentrations were measured by venous bleeding at 0, 15, 30, 60 and 120 min after an i.p. injection of human insulin at 1 U/kg.” for “libitum.”

C57BL/6J mice [4] = experiment: Body weight and fat mass by nuclear magnetic resonance body composition analyzer; assay type: in vivo
Protocol: as §1, with “libitum. The body weight and fat mass of all mice were performed by the nuclear magnetic resonance body composition analyzer by Nuclear Magnetic Resonance Body Composition Analyzer in accordance with manufacturer's instruction. The body weight and fat mass were tested weekly (9-14 weeks) and at 9th and 14th week before supplementation and feeding, respectively.” for “libitum.”

UCP1 and PGC-1α = experiment: mRNA levels of brown fat-enriched genes in adipose tissues (inguinal WAT) by real-time PCR; assay type: in vivo, mice
Protocol: Six-week-old male C57BL/6J mice were housed in a temperature-and relative humidity-controlled room (22±2° C., 55±5%) with a 12 h light-dark cycle and free access to food and water. For chronic anti-obesity studies, all mice were fed the high-fat diet (HFD, 60% calories from fat, 20% calories from protein, 20% calories from carbohydrate) for 8 weeks.
At 14 weeks of age, all mice were randomly divided into 3 groups of 10 animals: (1) non-supplement group (Con Food only, Group 1); (2) DHB supplement group (DHB+Food. 50 mg/kg, Group 2); (3) DHB supplement group (DHB+Food, 100 mg/kg, Group 3).
The mice in group 2 and group 3 were intraperitoneal injection (i.p.) administrated with DHB in normal saline solution daily for 6 weeks between 9:30 and 11:30 am, and food and water were given ad libitum.
At the end of the study, all mice were anesthetized with chloral hydrate, all relevant tissues like inguinal and perirenal adipose were dissected, weighed, immediately frozen in liquid nitrogen, and stored at −80° C.
The mRNA levels of brown fat-enriched genes such as UCP1 and PGC-1α from adipose tissues (like inguinal WAT) were determined by real-time PCR analysis.

UCP1, PRDM16 and PGC-1α = experiment: Expression levels of UCP1, PRDM16 and PGC-1α (FIG. 10); assay type: in vivo; conditions: relative to mice without DHB
Protocol: as §1

C57BL/6J mice [5] = experiment: Energy expenditure by comprehensive lab animal monitoring system (CLAMS), indirect calorimeter; assay type: in vivo
Protocol: Six-week-old male C57BL/6J mice were housed in a temperature-and relative humidity-controlled room (22±2° C., 55±5%) with a 12 h light-dark cycle and free access to food and water. For chronic anti-obesity studies, all mice were fed the high-fat diet (HFD, 60% calories from fat, 20% calories from protein, 20% calories from carbohydrate) for 8 weeks. At 14 weeks of age, all mice were randomly divided into 3 groups of 10 animals: (1) non-supplement group (Con Food only, Group 1); (2) DHB supplement group (DHB+Food. 50 mg/kg, Group 2); (3) DHB supplement group (DHB+Food, 100 mg/kg, Group 3). The mice in group 2 and group 3 were intraperitoneal injection (i.p.) administrated with DHB in normal saline solution daily for 6 weeks between 9:30 and 11:30 am, and food and water were given ad libitum. A key factor for controlling energy homoeostasis is the balance between caloric intake and energy expenditure. We analyzed the actions of DHB on energy expenditure using comprehensive lab animal monitoring system (CLAMS). Metabolic analysis was conducted between 8:30 am and 7:30 pm at the last week of experiment to identify […]. O2 consumption, CO2 production, and locomotor activity were measured using a 16-chamber indirect calorimeter. The mice were acclimated to the system for 20-24 h, and measurement of VO2 and VCO2 was performed during the next 24 h. The mice were maintained at 24° C. under a 12 h light/dark cycle. Food and water were available ad libitum. Voluntary activity was derived from the x-axis beam breaks monitored every 15 min. Heat production (energy expenditure) was calculated using the following equation: [formula] where heat is measured in kcal h^−1, VO2 is measured in litres kg^−1 h^−1 and body weight is measured in kg.

BAT = experiment: 18F-FDG uptake in BAT by PET/CT; assay type: in vivo, mice; conditions: PET/CT 60 min after tracer; fasted overnight; FIG. 14
Protocol: as §1, with “libitum. […] [formula]” for “libitum.”

C57BL/6J mice [6] = experiment: Rectal temperature in the cold room; assay type: in vivo; conditions: cold room 4-8° C.; 9th and 14th week; FIG. 15
Protocol: as §1

[7] = in vitro; cited from earlier work
[8] = mice, including mice lacking intestinal bacteria needed to break down BBR; cited from earlier work
[9] = 100 mg/kg compared with 50 mg/kg
[10] = adipose tissue (inguinal WAT), real-time PCR, relative to mice without DHB, FIG. 9

In the case of `COc1ccc2cc3[n+](cc2c1OC)CCc1cc2c(cc1-3)OCO2` [BBR, berberine], the “energy expenditure and adaptive thermogenesis” value (obese db/db mice) is given as “increase”, the “thermogenic program in BAT” value (obese db/db mice) is given as “promote the thermogenic program in BAT” and the weight gain (obese db/db mice) is given as “reduce weight gain”. The “brown adipocyte differentiation and BAT thermogenesis” value (brown adipocyte) was “promote”.

For `COc1ccc2c(c1OC)CN1CCc3cc4c(cc3C1=C2)OCO4` [DHB, dihydroberberine], the “improving biomarkers related to lipid mobilization, higher dose than lower dose” value (C57BL/6J mice [1]; [9]) was “greater effects”, the TG level (C57BL/6J mice [1]; plasma, HFD mice, DHB i.p. 50 or 100 mg/kg daily for 6 weeks, relative to mice without DHB, FIG. 1) was “lower levels” and the TC level (C57BL/6J mice [1]; plasma, HFD mice, DHB i.p. 50 or 100 mg/kg daily for 6 weeks, relative to mice without DHB, FIG. 2) was “lower levels”. For the same compound, the LDL level (C57BL/6J mice [1]; plasma, HFD mice, DHB i.p. 50 or 100 mg/kg daily for 6 weeks, relative to mice without DHB, FIG. 3) was “lower levels”, the VLDL level (C57BL/6J mice [1]; plasma, HFD mice, DHB i.p. 50 or 100 mg/kg daily for 6 weeks, relative to mice without DHB, FIG. 4) was “lower levels” and the “tolerance to a glucose load (i.p. glucose tolerance test)” value (C57BL/6J mice [2]) was “better tolerance to a glucose load”. The “insulin tolerance test result, higher-dose group” value (C57BL/6J mice [3]; [9]) was “better result”, the “insulin tolerance test result” value (C57BL/6J mice [3]; 5th week of supplementation, 6-h fasting, human insulin 1 U/kg i.p.) was “ameliorated glucose tolerance” and the “body weight (weight gain)” value (C57BL/6J mice [4]; group 2 and 3 (50 and 100 mg/kg), 6 weeks of treatment, week 9 to 14, FIG. 7) was “obviously protected from weight gain”. The “fat mass percentage (fat accumulation)” value (C57BL/6J mice [4]; group 3 (100 mg/kg), 9th and 14th week, FIG. 8) was “inhibited fat accumulation better”, the body fat percentage (C57BL/6J mice [4]; relative to mice without DHB supplementation) was “decreases body fat percentage” and the “browning of white fat, higher dose than lower dose” value (UCP1 and PGC-1α; [9]) was “greater effects”. For the same compound, the “PGC-1α mRNA level” value (UCP1 and PGC-1α; [10]) was “higher levels”, the “UCP1 mRNA level” value (UCP1 and PGC-1α; [10]) was “higher levels” and the “expression of PGC-1α” value (UCP1, PRDM16 and PGC-1α) was “increase the expression”. For the same compound, the “expression of PRDM16” value (UCP1, PRDM16 and PGC-1α) was “increase the expression”, the “expression of UCP1” value (UCP1, PRDM16 and PGC-1α) was “increase the expression” and the “BAT thermogenesis and energy expenditure, higher dose than lower dose” value (C57BL/6J mice [5]; [9]) was “greater effects”. The “BAT thermogenesis and energy expenditure” value (C57BL/6J mice [5]; 24 h period, FIG. 13) was “beneficial effects”, the “oxygen consumption (VO2) rate” value (C57BL/6J mice [5]; through a 12-h light/dark cycle, 24 h period, 24° C., FIG. 11) was “markedly higher” and the “carbon dioxide production (VCO2) rate” value (C57BL/6J mice [5]; through a 12-h light/dark cycle, 24 h period, 24° C., FIG. 12) was “markedly higher”. For the same compound, the “total accumulated amount of 18F-FDG in BAT” value (BAT) was “increase the accumulated amount”, the rectal temperature (C57BL/6J mice [6]) was “higher” and the “intestinal absorption rate relative to BBR” value [7] was “five times higher”. For the same compound, the “absorption relative to BBR” value [8] was “better absorbed”.
